Values of other authors, collected in US4127524A, “Novel dodecapeptides, intermediates therefor, and compositions and methods employing said dodecapeptides” (priority 1977, dated 1978).

Columns and labels:
[1] = test system: partially purified brain opiate receptor sites
rat = details: injected directly into the brain of the rat

For “H-Tyr-Gly-Gly-Phe-Met-OH [methionine enkephalin]”, the “binding to partially purified brain opiate receptor sites” value [1] is given as “binds stereo-specifically” and the analgesic activity (rat) is given as “only weak analgesic agent of short duration”.
